In patent publication US11999739B2, “Antimicrobials methods of making and using the same” (BIOVERSYS AG, priority 2016, dated 2024):

How the values were obtained:
[1] = tested on: Staphylococcus aureus (S. aureus) 11540 strain; test: Standard microdilution MIC assay, S. aureus; assay type: cell-based
In short: (§1)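 MICs obtained by CLSI-standard microdilution, quality-controlled with reference strains in parallel. Values reported as + or − relative to a 16 micrograms/mL cutoff.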

[2] = tested on: Escherichia coli strain ATCC25922; test: Standard microdilution MIC assay, E. coli; assay type: cell-based
In short: as §1

SMILES | MIC [1] [µg/mL] | MIC [2] [µg/mL]
CC(=N)NCC[C@H](CO)NCc1ccc(-n2cc3cc(-c4cc(CCC[C@@H](N)CF)cc(Cl)c4F)[nH]c3nc2=O)cc1 [Compound 100] | ≤ 16 | ≤ 16
CC(=N)NCC[C@@H]1CCC[C@@H](c2ccc(-n3cc4cc(-c5cc(CCC[C@@H](N)CC(N)=O)cc(Cl)c5F)[nH]c4nc3=O)cc2)N1 [Compound 156] | ≤ 16 | ≤ 16
C=C[C@@H](CCNC(C)=N)NCc1ccc(-n2cc3cc(-c4cc(CCC[C@H](N)C(F)F)cc(Cl)c4F)[nH]c3nc2=O)cc1 [Compound 142] | ≤ 16 | ≤ 16
C[C@H](N)CCCc1cc(Cl)c(F)c(-c2cc3cn(-c4ccc(CNCCCNC(=N)CF)c(F)c4)c(=O)nc3[nH]2)c1 [Compound 77] | ≤ 16 | ≤ 16
CC(=N)NCC[C@@H]1CCC[C@@H](c2ccc(-n3cc4cc(-c5cc(CCCC6(N)CC6)cc(Cl)c5F)[nH]c4nc3=O)cc2)N1 [Compound 147] | ≤ 16 | ≤ 16
CC(=N)NCC[C@H](CN)NCc1ccc(-n2cc3cc(-c4cc(CCC[C@H](C)N)cc(Cl)c4F)[nH]c3nc2=O)cc1 [Compound 17] | ≤ 16 | ≤ 16
CC(=N)NCC[C@@H]1CCC[C@@H](c2ccc(-n3cc4cc(-c5cc(CCC[C@@H](N)C(F)F)cc(Cl)c5F)[nH]c4nc3=O)cc2)N1 [Compound 139] | ≤ 16 | ≤ 16
C=CC(CCNC(C)=N)NCc1ccc(-n2cc3cc(-c4cc(CCC[C@@H](N)C(F)(F)F)cc(Cl)c4F)[nH]c3nc2=O)cc1 (stereo partly drawn) [Compound 11] | ≤ 16 | > 16
C=C[C@@H](N)CCCc1cc(Cl)c(F)c(-c2cc3cn(-c4ccc(CN[C@H](C=C)CCNC(=N)CF)cc4)c(=O)nc3[nH]2)c1 [Compound 38] | ≤ 16 | ≤ 16
CC(=N)NCCCN[C@@H](CO)c1ccc(-n2cc3cc(-c4cc(CCC[C@@H](N)CO)cc(Cl)c4F)[nH]c3nc2=O)cc1 [Compound 133] | ≤ 16 | ≤ 16
CC(=N)NCC[C@@H]1CCC[C@@H](c2ccc(-n3cc4cc(-c5cc(CCC[C@@H](N)CF)cc(Cl)c5F)[nH]c4nc3=O)cc2)N1 [Compound 104] | ≤ 16 | ≤ 16
CC(=N)NCC[C@@H]1CCC[C@@H](c2ccc(-n3cc4cc(-c5cc(CCCC(C)(C)N)cc(Cl)c5F)[nH]c4nc3=O)cc2)N1 [Compound 7] | ≤ 16 | ≤ 16
CC(=N)NCC[C@@H]1CCC[C@@H](c2ccc(-n3cc4cc(-c5cc(CCC[C@@H](N)CF)cc(C(F)(F)F)c5)[nH]c4nc3=O)cc2F)N1 [Compound 205] | ≤ 16 | ≤ 16
CC(=N)NCC[C@H](CO)NCc1ccc(-n2cc3cc(-c4cc(CCCC(C)(C)N)cc(Cl)c4F)[nH]c3nc2=O)cc1 [Compound 40] | ≤ 16 | ≤ 16
C[C@H](N)CCCc1cc(Cl)c(F)c(-c2cc3cn(-c4ccc([C@@H](C)NCCCNC(=N)CF)c(F)c4)c(=O)nc3[nH]2)c1 [Compound 114] | ≤ 16 | ≤ 16
C[C@H](N)CCCc1cc(Cl)c(F)c(-c2cc3cn(-c4ccc([C@@H]5COC[C@@H](CCNC(=N)CF)N5)cc4)c(=O)nc3[nH]2)c1 [Compound 75] | ≤ 16 | ≤ 16
CC(=N)NCCCN[C@H](c1ccc(-n2cc3cc(-c4cc(CCC[C@H](C)N)cc(Cl)c4F)[nH]c3nc2=O)cc1)C(F)F [Compound 159] | ≤ 16 | ≤ 16
C=C[C@@H](CCNC(=N)CC(F)(F)F)NCc1ccc(-n2cc3cc(-c4cc(CCC[C@H](C)N)cc(Cl)c4F)[nH]c3nc2=O)cc1 [Compound 58] | ≤ 16 | ≤ 16
C=CC(CCNC(=N)CC(F)(F)F)NCc1ccc(-n2cc3cc(-c4cc(CCC[C@H](C)N)cc(Cl)c4F)[nH]c3nc2=O)cc1 (stereo partly drawn) [Compound 16] | ≤ 16 | ≤ 16
C=CC(CCNC(C)=N)NCc1ccc(-n2cc3cc(-c4cc(CCCC(C)(C)N)cc(Cl)c4F)[nH]c3nc2=O)cc1 (stereo not drawn) [Compound 6] | ≤ 16 | ≤ 16
C=CCN(CC[C@@H]1CCC[C@@H](c2ccc(-n3cc4cc(-c5cc(CCC[C@H](C)N)cc(Cl)c5F)[nH]c4nc3=O)cc2)N1C)C(C)=N [Compound 180] | ≤ 16 | ≤ 16
C=C[C@@H](CCNC(C)=N)NCc1ccc(-n2cc3cc(-c4cc(CCC[C@H](C)N)cc(Cl)c4F)[nH]c3nc2=O)cc1 [Compound 14] | ≤ 16 | ≤ 16
CC(=N)NCC[C@H](CO)N[C@@H](C)c1ccc(-n2cc3cc(-c4cc(CCC[C@H](C)N)cc(Cl)c4F)[nH]c3nc2=O)cc1F [Compound 177] | ≤ 16 | ≤ 16
C=C[C@@H](N)CCCc1cc(Cl)c(F)c(-c2cc3cn(-c4ccc([C@@H]5CCC[C@@H](CCNC(C)=N)N5)c(F)c4)c(=O)nc3[nH]2)c1 [Compound 166] | ≤ 16 | ≤ 16

Further lines, results first:

MIC [1] [µg/mL] | MIC [2] [µg/mL] | SMILES
≤ 16 | ≤ 16 | CC(=N)NCC[C@@H]1CCC[C@@H](c2ccc(-n3cc4cc(-c5cc(CCC[C@@H](N)CF)cc(OC(F)(F)F)c5F)[nH]c4nc3=O)cc2)N1 [Compound 236]
≤ 16 | ≤ 16 | CC(=N)NCC[C@@H]1CCC[C@@H](c2ccc(-n3cc4cc(-c5cc(F)c(C(F)(F)F)c(CCC[C@H](C)N)c5)[nH]c4nc3=O)cc2)N1 [Compound 318]
≤ 16 | ≤ 16 | COC[C@H](N)CCCc1cc(-c2cc3cn(-c4ccc(CN[C@H](CCNC(C)=N)C5CC5)cc4)c(=O)nc3[nH]2)c(F)c(C(F)(F)F)c1 [Compound 224]
≤ 16 | ≤ 16 | COc1cc(-n2cc3cc(-c4cc(CCC[C@@H](N)C5CC5)cc(C(F)(F)F)c4F)[nH]c3nc2=O)ccc1[C@@H]1CCC[C@@H](CCNC(C)=N)N1 [Compound 235]
≤ 16 | ≤ 16 | CC(=N)NCC[C@@H](NCc1ccc(-n2cc3cc(-c4cc(CCC[C@@H](N)CF)cc(C(F)(F)F)c4F)[nH]c3nc2=O)cc1)C1CC1 [Compound 230]
≤ 16 | ≤ 16 | CC(=N)NCC[C@@H]1CCC[C@@H](c2ccc(-n3cc4cc(-c5cc(CCC[C@@H](N)C6CC6)cc(Cl)c5F)[nH]c4nc3=O)cc2C)N1 [Compound 239]
≤ 16 | ≤ 16 | COC[C@H](N)CCCc1cc(OC(F)(F)F)c(F)c(-c2cc3cn(-c4ccc([C@@H]5CCC[C@@H](CCNC(C)=N)N5)c(OC(F)(F)F)c4)c(=O)nc3[nH]2)c1 [Compound 233]
≤ 16 | ≤ 16 | CC(=N)NCC[C@@H]1CSC[C@@H](c2ccc(-n3cc4cc(-c5cc(CCC[C@H](C)N)cc(Cl)c5F)[nH]c4nc3=O)cc2)N1 [Compound 271]
≤ 16 | ≤ 16 | CC(=N)NCC[C@@H]1CCC[C@@H](c2c(F)cc(-n3cc4cc(-c5cc(CCC[C@@H](N)C6CC6)cc(C(F)(F)F)c5)[nH]c4nc3=O)cc2F)N1 [Compound 285]
≤ 16 | ≤ 16 | CC(=N)N[C@H](C)C[C@@H]1CCC[C@@H](c2ccc(-n3cc4cc(-c5cc(CCC[C@@H](N)C6CC6)cc(Cl)c5F)[nH]c4nc3=O)cc2)N1 [Compound 257]
≤ 16 | ≤ 16 | COC[C@H](N)CCCc1cc(OC(F)(F)F)c(F)c(-c2cc3cn(-c4ccc(CN[C@H](CCNC(C)=N)C5CC5)cc4)c(=O)nc3[nH]2)c1 [Compound 223]
≤ 16 | ≤ 16 | CSc1cc(-n2cc3cc(-c4cc(CCC[C@@H](N)C5CC5)cc(Cl)c4F)[nH]c3nc2=O)cc(F)c1[C@@H]1CCC[C@@H](CCNC(C)=N)N1 [Compound 275]
